Experimental findings from PubChem BioAssay AID184 (DTP/NCI, 2004) are described below.

Several values for one entry are separate records, joined by “and”; a condition that tells them apart may be missing. Equal entries are not always repeated. Toxic doses and inconclusive results are not listed.

The test relates to BALB/cJ mice, ADJ-PC-6 ip tumor, median survival T/C. The test is described as follows: NCI In Vivo Anticancer Drug Screen. Data for tumor model ADJ-PC-6 (intraperitoneal) in BALB/cJ mice. The conditions noted are these: endpoint: median survival time, higher = longer survival. Here is the method:
The antitumor activity of compounds was measured in mice bearing transplantable tumors. Survival or tumor size were measured and the results are expressed as the measurement made in the treated group (T) divided by the measurement made in the vehicle treated control group (C). The tumor model used in this assay is ADJ-PC-6 (intraperitoneal) in BALB/cJ mice

The mark [1] stands for this setting: dose: 5.0 mg/kg/injection, schedule: Q04DX003 (ip), vehicle: saline.
The mark [2] stands for this setting: dose: 6.25 mg/kg/injection, schedule: Q04DX003 (ip), vehicle: saline with Tween-80.
Setting [3] is: dose: 10.0 mg/kg/injection, schedule: Q04DX003 (ip), vehicle: saline.
The mark [4] stands for this setting: dose: 20.0 mg/kg/injection, schedule: Q04DX003 (ip), vehicle: saline.
[5] abbreviates: dose: 25.0 mg/kg/injection, schedule: Q04DX003 (ip), vehicle: saline with Tween-80.
Where [6] appears, read: dose: 40.0 mg/kg/injection, schedule: Q04DX003 (ip), vehicle: saline.
[7] abbreviates: dose: 50.0 mg/kg/injection, schedule: Q04DX003 (ip), vehicle: saline with Tween-80.
[8] abbreviates: dose: 80.0 mg/kg/injection, schedule: Q04DX003 (ip), vehicle: saline.
The mark [9] stands for this setting: dose: 100.0 mg/kg/injection, schedule: Q04DX003 (ip), vehicle: saline with Tween-80.

On to `CC(=O)O[C@H]1C(=O)[C@@]2(C)[C@H]([C@H](OC(=O)c3ccccc3)[C@]3(O)C[C@H](OC(=O)[C@H](O)[C@@H](NC(=O)c4ccccc4)c4ccccc4)C(C)=C1C3(C)C)[C@]1(OC(C)=O)CO[C@@H]1C[C@@H]2O`, for which the T/C runs as follows: (dose: 0.75 mg/kg/injection, schedule: Q01DX009 (ip), vehicle: Klucel (hydroxypropylcellulose) (HPC)) 102 % of control; (dose: 1.56 mg/kg/injection, schedule: Q01DX009 (ip), vehicle: Klucel (hydroxypropylcellulose) (HPC)) 118 % of control; (dose: 3.0 mg/kg/injection, schedule: Q01DX009 (ip), vehicle: Klucel (hydroxypropylcellulose) (HPC)) 112 % of control; (dose: 3.12 mg/kg/injection, schedule: Q01DX009 (ip), vehicle: Klucel (hydroxypropylcellulose) (HPC)) 112 % of control; (dose: 6.0 mg/kg/injection, schedule: Q01DX009 (ip), vehicle: Klucel (hydroxypropylcellulose) (HPC)) 121 % of control; (dose: 12.0 mg/kg/injection, schedule: Q01DX009 (ip), vehicle: Klucel (hydroxypropylcellulose) (HPC)) 124 % of control.

Take `COc1cc([C@@H]2c3cc4c(cc3[C@@H](OC3OC5COC(C)OC5C(O)C3O)[C@H]3COC(=O)[C@H]23)OCO4)cc(OC)c1O` (some centres not stated): the T/C by setting is: under setting [1], 201 % of control; under setting [2], 224 % of control; under setting [3], 337 % of control; (dose: 12.5 mg/kg/injection, schedule: Q04DX003 (ip), vehicle: saline with Tween-80) 247 % of control; under setting [4], 355 % of control; under setting [5], 337 % of control. Further, the T/C reads like this: under setting [6], 355 % of control; under setting [7], 337 % of control; under setting [8], 355 % of control; under setting [9], 337 % of control.

Take `S=c1nc[nH]c2nc[nH]c12`: the T/C is 335 % of control (dose: 10.0 mg/kg/injection, schedule: Q04DX003 (ip), vehicle: alkali diluted with saline); 335 % of control (dose: 20.0 mg/kg/injection, schedule: Q04DX003 (ip), vehicle: alkali diluted with saline); 471 % of control (dose: 25.0 mg/kg/injection, schedule: Q04DX003 (ip), vehicle: alkali diluted with saline); 335 % of control (dose: 40.0 mg/kg/injection, schedule: Q04DX003 (ip), vehicle: alkali diluted with saline); 471 % of control (dose: 50.0 mg/kg/injection, schedule: Q04DX003 (ip), vehicle: alkali diluted with saline); 335 % of control (dose: 80.0 mg/kg/injection, schedule: Q04DX003 (ip), vehicle: alkali diluted with saline). For the same compound, the T/C is, setting by setting: (dose: 100.0 mg/kg/injection, schedule: Q04DX003 (ip), vehicle: alkali diluted with saline) 178 % of control and 471 % of control; (dose: 100.0 mg/kg/injection, schedule: Q04DX003 (ip), vehicle: alkali diluted with water) 275 % of control and 283 % of control; (dose: 160.0 mg/kg/injection, schedule: Q04DX003 (ip), vehicle: alkali diluted with saline) 335 % of control; (dose: 200.0 mg/kg/injection, schedule: Q04DX003 (ip), vehicle: alkali diluted with saline) 93 % of control; (dose: 200.0 mg/kg/injection, schedule: Q04DX003 (ip), vehicle: alkali diluted with water) 275 % of control and 369 % of control.

Take `COc1cccc2c1C(=O)c1c(O)c3c(c(O)c1C2=O)C[C@@](O)(C(=O)CO)C[C@@H]3OC1CC(N)C(O)C(C)O1` (some centres not stated): the T/C by setting is: (dose: 0.5 mg/kg/injection, schedule: Q04DX003 (iv), vehicle: saline) 103 % of control; (dose: 1.0 mg/kg/injection, schedule: Q04DX003 (iv), vehicle: saline) 92 % of control; (dose: 2.0 mg/kg/injection, schedule: Q04DX003 (iv), vehicle: saline) 97 % of control; (dose: 4.0 mg/kg/injection, schedule: Q04DX003 (iv), vehicle: saline) 95 % of control; (dose: 8.0 mg/kg/injection, schedule: Q04DX003 (iv), vehicle: saline) 168 % of control and 225 % of control.

As to `COc1cc([C@@H]2c3cc4c(cc3[C@@H](OC3OC5CO[C@@H](c6cccs6)OC5C(O)C3O)[C@H]3COC(=O)[C@H]23)OCO4)cc(OC)c1O` (some centres not stated), the T/C was 185 % of control under setting [1]; 151 % of control and 207 % of control under setting [3]; 264 % of control and 301 % of control under setting [4]; 269 % of control and 355 % of control under setting [6]; 337 % of control and 355 % of control under setting [8]; 337 % of control (dose: 160.0 mg/kg/injection, schedule: Q04DX003 (ip), vehicle: saline).

With `Nc1nc(=S)c2[nH]cnc2[nH]1`, the T/C (dose: 0.5 mg/kg/injection, schedule: Q01DX009 (ip), vehicle: alkali diluted with saline) was 194 % of control and 239 % of control; the T/C (dose: 1.0 mg/kg/injection, schedule: Q01DX009 (ip), vehicle: alkali diluted with saline) was 194 % of control and 267 % of control; the T/C (dose: 2.0 mg/kg/injection, schedule: Q01DX009 (ip), vehicle: alkali diluted with saline) is 194 % of control and 267 % of control; the T/C (dose: 4.0 mg/kg/injection, schedule: Q01DX009 (ip), vehicle: alkali diluted with saline) is 194 % of control.

As to `Cc1c2ccncc2c(C)c2c1[nH]c1ccccc12`, the T/C is 122 % of control under setting [2], 190 % of control under setting [5], 255 % of control under setting [7] and 250 % of control under setting [9].

On to `CC1(C)N=C(N)N=C(N)N1c1ccc(CCCCc2ccc(S(=O)(=O)F)cc2Cl)c(Cl)c1`, for which the T/C is 88 % of control (dose: 2.5 mg/kg/injection, schedule: Q01DX009 (ip), vehicle: saline); 101 % of control (dose: 5.0 mg/kg/injection, schedule: Q01DX009 (ip), vehicle: saline); 106 % of control (dose: 10.0 mg/kg/injection, schedule: Q01DX009 (ip), vehicle: saline); 96 % of control (dose: 12.5 mg/kg/injection, schedule: Q04DX003 (ip), vehicle: Klucel (hydroxypropylcellulose) (HPC)); 119 % of control (dose: 20.0 mg/kg/injection, schedule: Q01DX009 (ip), vehicle: saline); 91 % of control (dose: 25.0 mg/kg/injection, schedule: Q04DX003 (ip), vehicle: Klucel (hydroxypropylcellulose) (HPC)). Besides, the T/C was 92 % of control (dose: 50.0 mg/kg/injection, schedule: Q04DX003 (ip), vehicle: Klucel (hydroxypropylcellulose) (HPC)); 91 % of control (dose: 100.0 mg/kg/injection, schedule: Q04DX003 (ip), vehicle: Klucel (hydroxypropylcellulose) (HPC)); 91 % of control (dose: 200.0 mg/kg/injection, schedule: Q04DX003 (ip), vehicle: Klucel (hydroxypropylcellulose) (HPC)).

In the case of `CO[C@H]1C[C@@H]2CC[C@@H](C)[C@@](O)(O2)C(=O)C(=O)N2CCCC[C@H]2C(=O)O[C@H]([C@H](C)C[C@@H]2CC[C@@H](O)[C@H](OC)C2)CC(=O)[C@H](C)C=C(C)[C@@H](O)[C@@H](OC)C(=O)[C@H](C)C[C@H](C)/C=C/C=C/C=C1C`, the T/C was 113 % of control and 114 % of control (dose: 7.5 mg/kg/injection, schedule: Q01DX009 (ip), vehicle: saline with Tween-80); 116 % of control (dose: 15.0 mg/kg/injection, schedule: Q01DX009 (ip), vehicle: saline with Tween-80); 87 % of control (dose: 25.0 mg/kg/injection, schedule: Q01DX009 (ip), vehicle: saline); 114 % of control and 118 % of control (dose: 30.0 mg/kg/injection, schedule: Q01DX009 (ip), vehicle: saline with Tween-80); 98 % of control (dose: 50.0 mg/kg/injection, schedule: Q01DX009 (ip), vehicle: saline); 95 % of control and 110 % of control (dose: 60.0 mg/kg/injection, schedule: Q01DX009 (ip), vehicle: saline with Tween-80). Besides, the T/C is, setting by setting: (dose: 100.0 mg/kg/injection, schedule: Q01DX009 (ip), vehicle: saline) 87 % of control; (dose: 120.0 mg/kg/injection, schedule: Q01DX009 (ip), vehicle: saline with Tween-80) 87 % of control; (dose: 200.0 mg/kg/injection, schedule: Q01DX009 (ip), vehicle: saline) 93 % of control.

As to `CC(=O)[C@]1(O)Cc2c(O)c3c(c(O)c2[C@@H](OC2CC(N)C(O)C(C)O2)C1)C(=O)c1c(O)cccc1C3=O` (some centres not stated), the T/C reads like this: (dose: 0.13 mg/kg/injection, schedule: Q04DX003 (ip), vehicle: saline) 164 % of control; (dose: 0.25 mg/kg/injection, schedule: Q04DX003 (ip), vehicle: saline) 168 % of control; (dose: 0.5 mg/kg/injection, schedule: Q04DX003 (ip), vehicle: saline) 178 % of control.
